Assay results published in patent US8506928B2, “Methods and compounds for targeting tissues” (The Regents of the University of California, priority 2007, dated 2013).
Residues, ends and D or L forms follow the SMILES beside them.

Assays:
[1] = Pre-administration of RES inhibitors before CRPPR-3 liposomes; assay type: in vivo, mice; settings: for decrease of accumulation within the heart: 90 minute time point, pre-administration before CRPPR-3 liposomes; for ratio of radioactivity in the heart with and without inhibitors: well counts at 90 minutes after CRPPR-3 liposome injection
Method: Blank liposomes: blank liposomes (DPPC:DSPE-PEG2000=98:2 (mol/mol), with diameter 100 nm) with 300 μg lipids (12 mg/kg) in 100 μl saline were injected 15 minutes before the radiolabeled targeted liposomes. Polyinosinic acid (PI): PI (P4154), purchased from Sigma-Aldrich, was dissolved in 0.9% sterile injection saline at 2 mg/ml. A small amount of sodium hydroxide solution was added to dissolve PI powder and the pH of the PI solution was adjusted to 7.4 with HCl solution. 5 μl of PI solution (˜10 μg of PI, 0.4 mg/kg) was diluted with 100 μl saline and injected 1 minute before the injection of the radiolabeled targeted liposomes. Control animals received an equal volume of saline solution. Clodronate liposomes: Clodronate liposomes were prepared as in [21]. 100 μl of clodronate liposomes (˜0.05 mg, 2 mg/kg) were injected 24 hours in advance of the administration of radiolabeled targeted liposomes. Control animals received an equal volume of saline solution. Free CRPPR Peptide (SEQ ID NO: 1): 700 μg of CRPPR peptides (SEQ ID NO: 1) (25 mg/kg) were injected 1 minute before the administration of radiolabeled targeted liposomes. Control animals received an equal volume of injection saline solution.

heart endothelium = settings: described in [4]; cited from earlier work

Molecule | decrease of accumulation within the heart [1] [%] | ratio of radioactivity in the heart with and without inhibitors [1] | target-to-muscle ratio, phage targeting (heart endothelium)
NC(N)=NCCC[C@H](NC(=O)[C@@H]1CCCN1C(=O)[C@@H]1CCCN1C(=O)[C@H](CCCN=C(N)N)NC(=O)[C@@H](N)CS)C(=O)O [CRPPR] (H-CRPPR-OH) | ~19 | 0.81 | greater than 300 fold
Polyinosinic acid [PI] | 41 | 0.59 | –
